Test results published in patent US12403114B2, “Cannabinoid acid ester compositions and uses thereof” (EPM (IP), INC., priority 2019, dated 2025).
“Also recorded” adds a separate entry of the source.

Experiments:
[1] = test system: partial meniscectomy/ACL transection rat model of surgical induced osteoarthritis; test: Morphological evaluation of the joint surfaces (osteophyte, gross surface, articular surface damage), Example 6; assay type: in vivo
Description: Morphological evaluation of the joint surfaces was performed using digital images of the joint. The parameters evaluated included percentage of articular surface damage of the proximal tibia calculated as the area of lesions divided by the total condylar surface area, gross surface score and osteophyte score as described (Yanagisawa et al. BMC Musculoskeletal Disorders. April 2016; 17:188).
The gross finding score in the articular cartilage was graded as follows: • (i) Grade 1—intact articular surface; • (ii) Grade 2—minimal osteophyte; • (iii) Grade 3—over spur formation; • (iv) Grade 4—width of erosion area 0 to 0.5 mm • (v) Grade 5—width of erosion area 0.5 to 1 mm. • (vi) Grade 6—width erosion area 1 to 1.5 mm • (vii) Grade 7—width of erosion area 1.5 to 2.0 mm • (viii) Grade 8—width of erosion area >2.0 mm
The osteophyte score was graded as follows: • (i) Grade 0—normal around the medial tibia; • (ii) Grade 1—osteophyte formation ⅓ around the medial tibia; • (iii) Grade 2—osteophyte formation halfway around the medial tibia; • (iv) Grade 3—osteophyte formation ⅔ around the medial tibia; • (v) Grade 4—osteophyte formation all around the medial tibia.

LLCPK1 cells = test: Cellular lipid accumulation test in renal proximal tubule cells; assay type: cell-based; conditions: 3.125-25 μM; cells exposed to a mixture of oleate and palmitate, 24 hr (FIG. 31)
Description: (§1) To test whether CBDA-ME has the ability to reduce lipid accumulation in renal proximal tubule cells, we have utilized an in vitro model of fat accumulation in LLCPK1 cells. Briefly, LLCPK1 cells were maintained at 37° C. in 5% CO2 in DMEM medium supplemented with 10% FCS, 2 mM 1-glutamine, 1 mM sodium pyruvate, 100 U/mL penicillin and […] streptomycin. Free fatty acids (2:1, molar ratio, oleic and palmitic acids) were mixed with bovine serum albumin (BSA). Cells were incubated with fatty acid-BSA complex in FCS-free culture medium at 0.3 mM final concentration of fatty acid and 1% of BSA. Control cell cultures were incubated with medium containing the vehicle. Compounds were tested in a range of concentrations (as detailed in the results section) in the presence/absence of fatty acids. After 24 hr of incubation with the compounds, the cells were washed, incubated with 1 μg/mL mixture of Nile-Red/Hoechst solution for 15 mins at 37° C. protected from light. Fluorescence was measured by the Cytation-3 plate reader at ex:488 nm/em:550 for Nile-Red and Hoechst, respectively. Results were normalized to total protein levels of each well, and presented as a change in the accumulation of lipids in comparison with Vehicle-treated group.

[2] = test system: weight gain in rats with an adipogenic diet; test: Rat model of diet induced obesity (Teklad TD95217 adipogenic diet), weight gain; assay type: in vivo; conditions: 150 uL of 3.5 mg/ml i.p., each animal its own control (FIG. 33)
Description: The study was designed as a N-of-1 study, where each animal served as its own control. The advantage of this model is the elimination of the need for a control group and reduction of […] variation. The study was performed in two phases: a short-term study with one week exposure to EPM-301 and a long-term study with 8 weeks exposure to EPM-301 (injected daily). In the long-term study, a control group was used including animals fed the adipogenic diet.
EPM-301 was dissolved in 1:1:18 EtOH:cremophor:seline solution to final concentration of 3.5 mg/ml.
In the short-term experiment, all rats were injected i.p. 150 uL in the first day, and after a 3-day break were then injected i.p. every day for 4 days. In the long-term experiment i.p. injections of 150 uL were carried out daily for 8 weeks. Weight was measured at weeks 0, 1, 3, and 9 after injections.
The rats were weighed on a digital weight weekly in the short-term study for 3 weeks. The rats were weighed on weeks 0, 1, 3, and 9 in the long-term study.
Rats were allowed to acclimatize for 1 week, and then their weights were assessed using a digital weighing machine. Animals are fed an adipogenic diet for two weeks before starting injections.
The weights of the animals were compared at each time point and the change over time calculated. ANOVA was used to determine whether there was a significant change. […]

[3] = test system: Human hepatoma HepG2 cells; test: Fat accumulation in hepatocytes (Nile-Red); assay type: cell-based; conditions: 0.3 mM oleic:palmitic acids, 24 hr; EPM-301 effect at high (50 and 10 μM) and low (0.025 and 0.001 μM) concentrations, bell-shaped (FIG. 37, 38)
Description: as §1, with “An in vitro model of fat accumulation in hepatocytes was used to” for “To”, “compounds EPM-301 and EPM-302 have” for “CBDA-ME has”, “hepatocytes Human hepatoma HepG2” for “renal proximal tubule cells, we have utilized an in vitro model of fat accumulation in LLCPK1 cells. Briefly, LLCPK1”, “concentrations” for “concentrations (as detailed”, “presence” for “results section) in the presence/absence”, “nm/em:550 nm and ex:350 nm/em:461 nm” for “nm/em:550”
[…] EPM-301 at 50 μM was used as positive control.
Values are expressed as mean±SEM. […]

## C=C(C)[C@@H]1CCC(C)=CC1c1c(O)cc(CCCCC)c(C(=O)OC)c1O (stereo partly drawn) [EPM-301, cannabidiolic acid methyl ester]
[1]; as compared to the HA and CS treated groups (FIG. 4)
  gross surface score: improvement
[1]; as compared to the HA and CS treated groups (FIG. 5)
  percentage of articular surface damage: less
[1]; relative to the hyaluronic acid and the corticosteroid treatments (FIG. 3)
  osteophyte score: superiority
LLCPK1 cells
  fat accumulation in kidney cells (lipotoxicity): prevent
[2]
  weight gain, short-term study: halting
[3]
  amount of fat accumulation in hepatocytes: significantly reduce; also recorded: ineffective
